According to ChEMBL document CHEMBL1201862, “PubChem BioAssay data set” (2004):
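48-hour exposure; five concentrations; linearly interpolated endpoints. GI50 = concentration required for 50% inhibition of growth.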 Active and inactive are the calls of the source. No stated cut-off is given here; in the data, active = GI50 up to about 1.1 µM and inactive = higher.

Legend:
Test in all cases: NCI anticancer screen, dose series, 48 h
A498 = test system: A498
CAKI-1 = test system: CAKI-1
HL-60 = test system: HL-60
K562 = test system: K562
KM12 = test system: KM12
MCF7 = test system: MCF7
Malme-3M = test system: Malme-3M
NCI-H460 = test system: NCI-H460
OVCAR-8 = test system: OVCAR-8
RXF 393 = test system: RXF 393
SF-295 = test system: SF-295
SN12C = test system: SN12C
SNB-75 = test system: SNB-75
SW-620 = test system: SW-620
TK-10 = test system: TK-10
UACC-257 = test system: UACC-257
UACC-62 = test system: UACC-62

SMILES	GI50 (A498)	GI50 (CAKI-1)	GI50 (HL-60)	GI50 (K562)	GI50 (KM12)	GI50 (MCF7)	GI50 (Malme-3M)	GI50 (NCI-H460)	GI50 (OVCAR-8)	GI50 (RXF 393)	GI50 (SF-295)	GI50 (SN12C)	GI50 (SNB-75)	GI50 (SW-620)	GI50 (TK-10)	GI50 (UACC-257)	GI50 (UACC-62)
O=NN(CCCl)C(=O)NC1CCC(CC2CCC(NC(=O)N(CCCl)N=O)CC2)CC1 (centres undefined)	31.4 µM (inactive)	31.3 µM (inactive)	16.4 µM (inactive)	2.26 µM (inactive)	> 73.3 µM (inactive)	0.316 µM (active)	32.3 µM (inactive)	1.74 µM (inactive)	19.9 µM (inactive)	1.66 µM (inactive)	0.986 µM (active)	28.4 µM (inactive)	16.6 µM (inactive)	23.3 µM (inactive)	32.5 µM (inactive)	3.29 µM (inactive)	
O=C1CCCn2c3ccccc3c3ccnc1c32	14.9 µM (inactive)	17.3 µM (inactive)	6.89 µM (inactive)	40.5 µM (inactive)	62.1 µM (inactive)	36.1 µM (inactive)	35.1 µM (inactive)	34 µM (inactive)	34.6 µM (inactive)	24.8 µM (inactive)	38.9 µM (inactive)	40.8 µM (inactive)	34.3 µM (inactive)	41.1 µM (inactive)		29.9 µM (inactive)	29.2 µM (inactive)
COc1ccc(/C(=N\NC(=O)NN)C(c2ccc(OC)cc2)C2(O)C(=O)Nc3c(Cl)cc(Cl)cc32)cc1 (centres undefined)			13.8 µM (inactive)		> 100 µM (inactive)		> 100 µM (inactive)	> 100 µM (inactive)	> 100 µM (inactive)	> 100 µM (inactive)	> 100 µM (inactive)	> 100 µM (inactive)	> 100 µM (inactive)	> 100 µM (inactive)	> 100 µM (inactive)	> 100 µM (inactive)	> 100 µM (inactive)
CCOC(=O)/C(=C/c1ccccn1)C(=O)c1ccccc1	18.9 µM (inactive)	14.5 µM (inactive)	2.19 µM (inactive)	5.19 µM (inactive)	11.9 µM (inactive)		13.5 µM (inactive)	23 µM (inactive)	14.5 µM (inactive)	11.2 µM (inactive)	13 µM (inactive)	13.7 µM (inactive)	13.8 µM (inactive)	14.2 µM (inactive)	17.5 µM (inactive)	13.8 µM (inactive)	9.59 µM (inactive)
Cc1cccc2c1C(=O)OC2(c1cccc2ccccc12)c1cccc2ccccc12	> 100 µM (inactive)	> 100 µM (inactive)	> 100 µM (inactive)	> 100 µM (inactive)	> 100 µM (inactive)		> 100 µM (inactive)	> 100 µM (inactive)	40.2 µM (inactive)	27.2 µM (inactive)	33.6 µM (inactive)	> 100 µM (inactive)	21.3 µM (inactive)	> 100 µM (inactive)	> 100 µM (inactive)	> 100 µM (inactive)	> 100 µM (inactive)
CC1=C2C(O)C(C(C)CO)C(O)CC2(C)C(O)CC1 (centres undefined)	> 100 µM (inactive)	> 100 µM (inactive)	> 100 µM (inactive)		> 100 µM (inactive)		> 100 µM (inactive)	> 100 µM (inactive)	> 100 µM (inactive)	> 100 µM (inactive)	> 100 µM (inactive)	> 100 µM (inactive)	> 100 µM (inactive)	> 100 µM (inactive)	> 100 µM (inactive)	> 100 µM (inactive)	> 100 µM (inactive)
CCN(CC)C(=S)SS(C)(=O)=O		22.4 µM (inactive)	5.12 µM (inactive)	< 0.01 µM (active)	17.1 µM (inactive)		26.7 µM (inactive)		19.8 µM (inactive)	11 µM (inactive)	18.9 µM (inactive)	16 µM (inactive)	29.6 µM (inactive)	18.5 µM (inactive)	18.3 µM (inactive)	23.2 µM (inactive)	15.1 µM (inactive)
CCOC(=O)C12CC1(C(=O)OCC)C1CCC2C1 (centres undefined)	> 100 µM (inactive)	> 100 µM (inactive)	71.6 µM (inactive)	68.5 µM (inactive)			91.8 µM (inactive)	> 100 µM (inactive)	> 100 µM (inactive)		> 100 µM (inactive)	> 100 µM (inactive)		> 100 µM (inactive)	> 100 µM (inactive)	44.7 µM (inactive)	> 100 µM (inactive)
Cc1cccc(/N=C2\NC(=O)C(CC(=O)Nc3ccc(C)cc3C)S2)c1 (centres undefined)	> 100 µM (inactive)	60.4 µM (inactive)	> 100 µM (inactive)	65.8 µM (inactive)			> 100 µM (inactive)	> 100 µM (inactive)	70.6 µM (inactive)	> 100 µM (inactive)	61.9 µM (inactive)	> 100 µM (inactive)	> 100 µM (inactive)	> 100 µM (inactive)	> 100 µM (inactive)	> 100 µM (inactive)	68.2 µM (inactive)
O=P1(Oc2ccc(Cl)cc2Cl)Oc2ccc3ccccc3c2-c2c(ccc3ccccc23)O1	24.8 µM (inactive)	21 µM (inactive)	22.9 µM (inactive)	31.4 µM (inactive)	32.9 µM (inactive)	33.7 µM (inactive)	21.9 µM (inactive)	32.4 µM (inactive)	40.1 µM (inactive)	16 µM (inactive)	34.8 µM (inactive)	30.8 µM (inactive)	31.5 µM (inactive)	32.4 µM (inactive)		59 µM (inactive)	26.7 µM (inactive)
C/C=C/CP(=O)(c1ccccc1)c1ccccc1	> 100 µM (inactive)		> 100 µM (inactive)	> 100 µM (inactive)	> 100 µM (inactive)		> 100 µM (inactive)	> 100 µM (inactive)	> 100 µM (inactive)	> 100 µM (inactive)	> 100 µM (inactive)	> 100 µM (inactive)	> 100 µM (inactive)	> 100 µM (inactive)	> 100 µM (inactive)	> 100 µM (inactive)	> 100 µM (inactive)
CC(=O)OCC1OC(Nc2nc(O)n(C)c(=O)c2-c2csc(N)n2)C(OC(C)=O)C(OC(C)=O)C1OC(C)=O (centres undefined)	> 100 µM (inactive)	> 100 µM (inactive)	70 µM (inactive)	> 100 µM (inactive)	> 100 µM (inactive)		> 100 µM (inactive)	> 100 µM (inactive)	> 100 µM (inactive)		> 100 µM (inactive)	> 100 µM (inactive)	> 100 µM (inactive)	> 100 µM (inactive)	> 100 µM (inactive)	> 100 µM (inactive)	> 100 µM (inactive)
O=c1c2ccccc2sc2nc(O)nn12		> 100 µM (inactive)	> 100 µM (inactive)	> 100 µM (inactive)	> 100 µM (inactive)		> 100 µM (inactive)	> 100 µM (inactive)	> 100 µM (inactive)	> 100 µM (inactive)	> 100 µM (inactive)	> 100 µM (inactive)	> 100 µM (inactive)	> 100 µM (inactive)	> 100 µM (inactive)	> 100 µM (inactive)	> 100 µM (inactive)
C/C(=C1/N=C(c2cc([N+](=O)[O-])ccc2Cl)N(C2=CC=C(Cl)CC2)C1=O)c1cc2ccccc2oc1=O	23.4 µM (inactive)	32.7 µM (inactive)	20 µM (inactive)	> 100 µM (inactive)	19.9 µM (inactive)		28.5 µM (inactive)	28 µM (inactive)	51.5 µM (inactive)		41.7 µM (inactive)	23.4 µM (inactive)	32.4 µM (inactive)	36.5 µM (inactive)		26.5 µM (inactive)	29.2 µM (inactive)
COc1nc2[nH]ccc2c(=O)n1C	> 100 µM (inactive)	24.3 µM (inactive)	> 100 µM (inactive)	> 100 µM (inactive)	> 100 µM (inactive)		> 100 µM (inactive)	> 100 µM (inactive)	> 100 µM (inactive)	> 100 µM (inactive)	> 100 µM (inactive)	> 100 µM (inactive)	> 100 µM (inactive)	> 100 µM (inactive)	> 100 µM (inactive)	> 100 µM (inactive)	
COc1cccc2c1C(=O)c1c(O)c3c(c(O)c1C2=O)C[C@@](O)(C(=O)CO)CC3OC1CC(NCCCCC(OC(C)=O)OC(C)=O)C(O)C(C)O1 (some centres undefined)	0.00365 µM (active)	0.00251 µM (active)	0.00202 µM (active)	0.00197 µM (active)	0.0024 µM (active)		0.0048 µM (active)	0.00115 µM (active)	0.00305 µM (active)	0.00193 µM (active)	0.0034 µM (active)	0.00348 µM (active)	0.00137 µM (active)	0.00259 µM (active)	0.00322 µM (active)	0.00468 µM (active)	0.00182 µM (active)
NC(CO)c1ccccc1 (centres undefined)		> 100 µM (inactive)	> 100 µM (inactive)		> 100 µM (inactive)		> 100 µM (inactive)	> 100 µM (inactive)	> 100 µM (inactive)	> 100 µM (inactive)	> 100 µM (inactive)		> 100 µM (inactive)	> 100 µM (inactive)	> 100 µM (inactive)	> 100 µM (inactive)	> 100 µM (inactive)
CC(C)c1ccc(O)c(=O)cc1 [GAMMA-THUJAPLICIN]	19.6 µM (inactive)	11.1 µM (inactive)	2.02 µM (inactive)	9.33 µM (inactive)	6.32 µM (inactive)		15.3 µM (inactive)	5.28 µM (inactive)	3.46 µM (inactive)	22.2 µM (inactive)	4.02 µM (inactive)	8.38 µM (inactive)	20.6 µM (inactive)	4.78 µM (inactive)	16.1 µM (inactive)	3.38 µM (inactive)	3.53 µM (inactive)
